Test results from patent US10471035B2, “Compositions and methods for using esters of meroterpenes and of other resveratrol analogues” (Sunny BioDiscovery, priority 2014, dated 2019).

What was measured:
[1] = system: UVA-irradiated epidermal substitutes cultured on adult fibroblast monolayer; assay: Gene expression in UVA-irradiated epidermal substitutes; GEO matching; type: cell-based
Description: (GSE: GEO Series; GPL: GEO Platforms; stats between −0.05 and 0.05 considered not significant match).
(GSE: GEO Series; GPL: GEO Platforms; stats between −0.05 and 0.05 considered not a significant match).

[2] = UVB irradiation, HPLC-MS profile; type: physicochemical
Description: Both compounds were irradiated with UVB light and their HPLC-MS profile was compared to their respective non-irradiated controls. FIGS. 2, 3, 6, and 7 show HPLC chromatograms of UVB-irradiated (lower portions) and non-irradiated samples (upper portions) of bakuchiol (FIGS. 2 and 3) and SBD.SE (FIGS. 6 and 7) detected at 254 nm (FIGS. 2 and 6) and 230 nm (FIGS. 3 and 7).

RAR = assay: Cignal RAR reporter assay; type: cell-based; conditions: up to 50 μg/ml
Description: Tissue irritation is a common side effect of retinoids. It is mediated, at least in part, by retinoid interaction with retinoic acid receptors (RARs; Thacher S M, Vasudevan J, Chandraratna R A. Therapeutic applications for ligands of retinoid receptors. Curr Pharm Des. 2000 January; 6(1):25-58; Kambayashi H, Odake Y, Takada K, Funasaka Y, Ichihashi M, Kato S. N-retinoyl-D-glucosamine, a new retinoic acid agonist, mediates topical retinoid efficacy with no irritation on photoaged skin. Br J Dermatol. 2005 December; 153 Suppl 2:30-6).

3T3 cells = assay: 3T3 Neutral Red phototoxicity (OECD 432); type: cell-based; conditions: up to at least 100 μg/ml
Procedure: Phototoxicity is defined as light-activated cytotoxicity. […] The protocol followed in this example was based on the OECD 432 Guidelines. Four 96 well plates were seeded with 3T3 cells (Sigma, St. Louis, Mo.; cat. 93061524-1VL) at 10,000 cells per well in DMEM supplemented with 10% iron-fortified calf serum, and grown overnight in humidified atmosphere at 37° C. in 5% CO2. Serial dilutions of SBD.SE and chlorpromazine (positive control) were added to 2 plates each. […]
[…] Plates were returned to the incubator for 24 h, afterward the medium was removed, cells were rinsed with PBS and placed in Neutral Red medium at 50 μg/ml in which cells were incubated for 3 more hours. Wells were then washed with PBS and Neutral Red was extracted from cells with 1.0% Glacial Acetic Acid/50% Ethanol/49% H2O solution.
Following a 30-minute extraction with mixing, the absorbance of each well was measured at 570 nm with Molecular Devices SpectraMax® microplate spectrophotometer. P values were calculated using two-tailed Student's test and p=0.05 was set as borderline for statistical significance.

C=C[C@@](C)(/C=C/c1ccc(OC(=O)c2ccccc2O)cc1)CCC=C(C)C [SBD.SE, Salicylic acid ester of bakuchiol]
GEO match Stat ([1]; vitro129 keratinocytes N/Tert immortalized -VS- keratinocytes empty vector (GSE50568/GPL570)): 0.105 | GEO match Stat ([1]; vitro131 reconstituted epidermis scabies mite extract -VS- reconstituted epidermis untreated (GSE48459/GPL6244)): −0.105 | GEO match Stat ([1]; vitro132 HaCaT keratinocytes cidofovir -VS- HaCaT keratinocytes untreated (GSE39293/GPL570)): −0.116 | GEO match Stat ([1]; vitro134 keratinocytes keloid -VS- keratinocytes uninvolved (GSE44270/GPL6244)): 0.153 | GEO match Stat ([1]; vitro137 N/TERT-1 keratinocytes miR-198 -VS- N/TERT-1 keratinocytes control (GSE37967/GPL10558)): 0.197 | GEO match Stat ([1]; vitro139 HaCaT keratinocytes miR-483-3p overexpression -VS- HaCaT keratinocytes control (GSE19931/GPL1456)): −0.08 | GEO match Stat ([1]; vitro145 HaCaT keratinocytes cobalt(II) chloride 3 hrs -VS- HaCaT keratinocytes water control (GSE16727/GPL4133)): 0.1 | GEO match Stat ([1]; vitro147 HaCaT keratinocytes tungsten carbide cobalt 3 days -VS- HaCaT keratinocytes water control (GSE16727/GPL4133), not matching retinol palmitate): 0.09 | GEO match Stat ([1]; vitro148 HaCaT keratinocytes cobalt(II) chloride 3 hrs -VS- HaCaT keratinocytes water control (GSE16727/GPL4133)): 0.122 | GEO match Stat ([1]; vitro150 reconstituted epidermis 0 hrs after 10 cGy radiation -VS- reconstituted epidermis control (GSE29344/GPL6883)): −0.073 | GEO match Stat ([1]; vitro151 reconstituted epidermis 3 hrs after 10 cGy radiation -VS- reconstituted epidermis control (GSE29344/GPL6883)): −0.088 | GEO match Stat ([1]; vitro152 reconstituted epidermis 8 hrs after 10 cGy radiation -VS- reconstituted epidermis control (GSE29344/GPL6883)): −0.078 | GEO match Stat ([1]; vitro153 reconstituted epidermis 24 hrs after 10 cGy radiation -VS- reconstituted epidermis control (GSE29344/GPL6883)): −0.154 | GEO match Stat ([1]; vitro156 reconstituted epidermis 8 hrs after 100 cGy radiation -VS- reconstituted epidermis control (GSE29344/GPL6883)): −0.119 | GEO match Stat ([1]; vitro160 HaCaT keratinocytes 5′-aza-2-deoxycytidine -VS- HaCaT keratinocytes untreated (GSE33493/GPL6883), not matching retinol palmitate): −0.098 | GEO match Stat ([1]; vitro165 HaCaT keratinocytes Ino-C2-PAF + IL1A + IL17 + IL22 + TNF + OsM -VS- HaCaT keratinocytes untreated (GSE37361/GPL13607)): −0.119 | GEO match Stat ([1]; vivo1 PP skin -VS- PN skin (GSE2737/GPL91), not matching retinol palmitate): 0.085 | GEO match Stat ([1]; vivo6 PP skin -VS- PN skin (GSE26866/GPL571), not matching retinol palmitate): 0.127 | GEO match Stat ([1]; vivo7 PP skin -VS- PN skin (GSE30999/GPL570), not matching retinol palmitate): 0.115 | GEO match Stat ([1]; vivo8 PP skin -VS- NN skin (GSE13355/GPL570), not matching retinol palmitate): 0.123 | GEO match Stat ([1]; vivo9 PP skin -VS- NN skin (GSE14905/GPL570), not matching retinol palmitate): 0.132 | GEO match Stat ([1]; vivo12 PP epidermis -VS- PN epidermis (GSE26866/GPL571), not matching retinol palmitate): 0.084 | GEO match Stat ([1]; vivo15 PP skin 1 wk etanercept -VS- PN skin baseline (GSE11903/GPL571), not matching retinol palmitate): 0.108 | GEO match Stat ([1]; vivo19 PP skin etanercept 1 wk -VS- PP skin baseline (GSE11903/GPL571), not matching retinol palmitate): −0.134 | GEO match Stat ([1]; vivo25 PN skin IFNg-treated 24 hrs -VS- PN skin baseline (GSE32407/GPL571)): −0.11 | GEO match Stat ([1]; vivo26 PN skin IFNg-treated 24 hrs -VS- PN skin placebo 24 hrs (GSE32407/GPL571)): −0.119 | GEO match Stat ([1]; vivo27 NN skin IFNg-treated 24 hrs -VS- NN skin baseline (GSE32407/GPL571)): −0.09 | GEO match Stat ([1]; vivo32 atopic dermatitis uninvolved epidermis -VS- NN epidermis (GSE26952/GPL2700)): 0.098 | GEO match Stat ([1]; vivo42 atopic dermatitis lesion -VS- NN skin (GSE5667/GPL96 + GPL97)): 0.11 | GEO match Stat ([1]; vivo43 atopic dermatitis lesion -VS- uninvolved skin (GSE5667/GPL96 + GPL97)): 0.111 | GEO match Stat ([1]; vivo49 epidermis sodium lauryl sulphate 11 days -VS- epidermis basline (GSE18206/GPL570)): 0.152 | GEO match Stat ([1]; vivo50 epidermis nonanoic acid 30 min -VS- epidermis basline (GSE18206/GPL570)): 0.125 | GEO match Stat ([1]; vivo51 epidermis nonanoic acid 4 hrs -VS- epidermis basline (GSE18206/GPL570)): 0.103 | GEO match Stat ([1]; vivo53 epidermis nonanoic acid 11 days -VS- epidermis basline (GSE18206/GPL570)): 0.17 | GEO match Stat ([1]; vivo59 wound margin 7+ days healed -VS- NN skin (GSE8056/GPL570), not matching retinol palmitate): 0.094 | GEO match Stat ([1]; vivo73 skin diffuse cutaneous systemic sclerosis -VS- NN skin (GSE32413/GPL4133), not matching retinol palmitate): 0.088 | GEO match Stat ([1]; vivo76 skin isotretinoin 8 wks -VS- skin baseline (GSE11792/GPL571), not matching retinol palmitate): −0.128 | GEO match Stat ([1]; vivo82 skin Haemophilus ducreyi infected -VS- skin PBS treated (GSE5547/GPL570)): −0.105 | GEO match Stat ([1]; vivo83 basal cell carcinoma -VS- NN skin (GSE7553/GPL570), not matching retinol palmitate): 0.081 | GEO match Stat ([1]; vivo85 squamous cell carcinoma -VS- NN skin (GSE7553/GPL570), not matching retinol palmitate): 0.12 | GEO match Stat ([1]; vivo88 squamous cell carcinoma -VS- NN skin (GSE2503/GPL96), not matching retinol palmitate): 0.111 | GEO match Stat ([1]; vivo93 melanoma in situ -VS- NN skin (GSE4587/GPL570), not matching retinol palmitate): 0.102 | GEO match Stat (inverse correlation with SBD.SE effect) ([1]; vivo99 UVB radiation 1 minimal erythema dose -VS- untreated skin (GSE22083/GPL96)): −0.088 | GEO match Stat (inverse correlation with SBD.SE effect) ([1]; vivo100 UVB radiation 100 J/m2 -VS- untreated skin (GSE22083/GPL96)): −0.102 | GEO match Stat (inverse correlation with SBD.SE effect) ([1]; vivo101 UVA radiation 0.1 minimal erythema dose -VS- untreated skin (GSE22083/GPL96)): −0.096 | GEO match Stat ([1]; vivo110 reticular dermis -VS- NN Skin (GSE42114/GPL570), not matching retinol palmitate): −0.074 | GEO match Stat ([1]; vivo114 dermatomyositis -VS- NN Skin (GSE46239/GPL570)): 0.116 | GEO match Stat ([1]; vivo115 seborrheic keratosis -VS- uninvolved Skin (GSE22998/(GPL570)), not matching retinol palmitate): 0.075 | GEO match Stat ([1]; vivo116 eschars in mediterranean spotted fever -VS- NN Skin (GSE32993/GPL6480), not matching retinol palmitate): 0.097 | GEO match Stat ([1]; vivo118 narrow-band UVB 24 hrs -VS- uninvolved skin (GSE41078/GPL571)): −0.116 | GEO match Stat ([1]; vivo120 atopic dermatitis chronic -VS- uninvolved skin (GSE36842/GPL570), not matching retinol palmitate): 0.125 | stability under UVB irradiation (HPLC-MS) [2]: no difference in mass of the peaks | transactivation of RAR (RAR): no effect | cytotoxicity in absence and presence of UVB light (3T3 cells): lack of significant cytotoxicity
